Test results as given in paper PMC11513893, “Discovery of Oral Degraders of the ROS1 Fusion Protein with Potent Activity against Secondary Resistance Mutations” (Journal of Medicinal Chemistry, 2024).

Legend:
[1] = system: Ba/F3 CD74-ROS1 non mutant; assay: Antiproliferation assay (Alamar Blue, 72 h); type: cell-based, mouse; conditions: Ba/F3 cells, cell growth inhibition
Description: (§1) To assess targeted degradation of ROS1 fusion proteins, we first established a mouse pro-B cell line Ba/F3 as a model expressing the CD74-ROS1 oncogene or CD74-ROS1 with clinically observed secondary/tertiary mutations. The Ba/F3 cell line is dependent on interleukin-3 for survival and proliferation. Upon transduction of oncogenic ROS1, Ba/F3 cells become independent of interleukin-3 but dependent on the transduced driver gene.
(§2) Ba/F3 immortalized murine bone marrow–derived pro-B cells were obtained from Creative Biogene (Shirley, NY) and cultured in RPMI supplemented with 10% FBS and IL3 (0.5 ng/mL). Ba/F3 cells expressing ROS1 variants were maintained in RPMI supplemented with 10% FBS and puromycin (0.7 mg/mL). […] Each compound was dissolved in DMSO and serially diluted in RPMI for cell culture experiments.
(§3) To assess the 72 h effect of drug treatment on cell proliferation, 2000 to 3000 cells were plated in replicates of three in 96-well plates. The plates were placed in an incubator at 37 °C, 5% CO2 for 72 h. Following drug treatments, the cells were incubated with the Alamar Blue Assay reagent (BioRad), 5 μL each well for 4 h at 37 °C and 5% CO2. Luminescence was measured on a multiplate reader and analyzed. […] IC50 values were determined using a nonlinear regression model with a sigmoidal dose response in GraphPad. The data were collected based on triplicate experiments, and presented as mean ± SD.
(§4) The resulting virus was used to infect Ba/F3 cells. After retroviral infection, Ba/F3 cells were selected by incubation with puromycin (0.7 mg/mL) for 2 weeks. For Ba/F3 cells infected by the CD74–ROS1 variants, IL3 was withdrawn from the culture medium at least 2 weeks before the experiments.

[2] = system: Ba/F3 ROS1-G2032R; assay: Antiproliferation assay; type: cell-based, mouse; conditions: Ba/F3 cells, cell growth inhibition, 72 h
Description: as §1, §2, §3, §4

[3] = system: ROS1; assay: ROS1 degradation in Ba/F3 cells (WES immunoblotting); type: cell-based; conditions: for DC50: concentration needed to reduce ROS1 protein by 50%, Ba/F3 cells; for Dmax (%) (ROS1): maximal degradation of ROS1 in Ba/F3 cells
Procedure: Protein levels were analyzed using a WES instrument according to the WES User Guide from ProteinSimple in duplicate experiments. The samples were mixed with the fluorescent 5 master mix (ProteinSimple) and then heated at 95 °C for 5 min. Boiled samples, biotinylated protein ladder, antibody diluent, Streptavidin-HRP, primary antibodies, ProteinSimple horseradish peroxidase conjugated antirabbit or antimouse secondary antibodies, luminol-peroxide, and wash buffer were loaded into the WES plate (Wes 12–230 kDa Prefilled Plates with Split Buffer, ProteinSimple). The plates and capillary cartridges were loaded into the WES instrument, and protein separation, antibody incubation, and imaging were performed according to manufacturer’s instructions. Compass software (ProteinSimple) was used to acquire the data and to generate the virtual blot image reconstruction and chemiluminescence signal intensity electropherograms. […] Protein levels are expressed as the AUC of the peak chemiluminescence intensity. Antibodies against phospho-ROS1(Tyr2274/2334) (E8F5J), ROS1 (D4D6(R)) were obtained from Cell Signaling Technology.

Row | DC50 [3] | IC50 ([1]; Mus musculus, BaF3, 72 h) | IC50 ([2]; Mus musculus, BaF3) | Molecule | IC50 [1] | IC50 [2] | Dmax (%) (ROS1) [3]
1 | 310 nM | 264 ± 44 nM | > 5000 nM | C[C@@H](Oc1cc(-c2cnn(C3CCN(c4cccc5c4C(=O)N(C4CCC(=O)NC4=O)C5=O)CC3)c2)cnc1N)c1c(Cl)ccc(F)c1Cl (stereo partly drawn) [7a, 4-(4-(4-(6-Amino-5-((R)-1-(2,6-dichloro-3-fluorophenyl)ethoxy)pyridin-3-yl)-1H-pyrazol-1-yl)piperidin-1-yl)-2-(2,6-dioxopiperidin-3-yl)isoindoline-1,3-dione] |  |  | 67%
2 | > 1000 nM | 2700 ± 254 nM | > 5000 nM | C[C@@H](Oc1cc(-c2cnn(C3CCN(CC4CN(c5cccc6c5C(=O)N(C5CCC(=O)NC5=O)C6=O)C4)CC3)c2)cnc1N)c1c(Cl)ccc(F)c1Cl (stereo partly drawn) [7b, 4-(3-((4-(4-(6-Amino-5-((R)-1-(2,6-dichloro-3-fluorophenyl)ethoxy)pyridin-3-yl)-1H-pyrazol-1-yl)piperidin-1-yl)methyl)azetidin-1-yl)-2-(2,6-dioxopiperidin-3-yl)isoindoline-1,3-dione] |  |  | <5%
3 | 368 nM | 350 ± 106 nM | > 5000 nM | C[C@@H](Oc1cc(-c2cnn(C3CCN(CC4CCN(c5cccc6c5C(=O)N(C5CCC(=O)NC5=O)C6=O)CC4)CC3)c2)cnc1N)c1c(Cl)ccc(F)c1Cl (stereo partly drawn) [7c, 4-(4-((4-(4-(6-Amino-5-((R)-1-(2,6-dichloro-3-fluorophenyl)ethoxy)pyridin-3-yl)-1H-pyrazol-1-yl)piperidin-1-yl)methyl)piperidin-1-yl)-2-(2,6-dioxopiperidin-3-yl)isoindoline-1,3-dione] |  |  | 76%
4 | 145 nM | 106 ± 29 nM | > 5000 nM | C[C@@H](Oc1cc(-c2cnn(C3CCN(CCC4CCN(c5cccc6c5C(=O)N(C5CCC(=O)NC5=O)C6=O)CC4)CC3)c2)cnc1N)c1c(Cl)ccc(F)c1Cl (stereo partly drawn) [7d, 4-(4-(2-(4-(4-(6-Amino-5-((R)-1-(2,6-dichloro-3-fluorophenyl)ethoxy)pyridin-3-yl)-1H-pyrazol-1-yl)piperidin-1-yl)ethyl)piperidin-1-yl)-2-(2,6-dioxopiperidin-3-yl)isoindoline-1,3-dione] |  |  | 78%
5 | 203 nM | 155 ± 21 nM | 2910 ± 742 nM | C[C@@H](Oc1cc(-c2cnn(C3CCN(c4ccc5c(c4)C(=O)N(C4CCC(=O)NC4=O)C5=O)CC3)c2)cnc1N)c1c(Cl)ccc(F)c1Cl (stereo partly drawn) [7e, 5-(4-(4-(6-Amino-5-((R)-1-(2,6-dichloro-3-fluorophenyl)ethoxy)pyridin-3-yl)-1H-pyrazol-1-yl)piperidin-1-yl)-2-(2,6-dioxopiperidin-3-yl)isoindoline-1,3-dione] |  |  | 53%
6 | 27 nM | 40 ± 6 nM |  | Cc1cc(Nc2ncc(Cl)c(Nc3ccccc3S(=O)(=O)C(C)C)n2)c(OC(C)C)cc1C1CCN(C2CN(C3CCN(c4ccc5c(c4)C(=O)N(C4CCC(=O)NC4=O)C5=O)CC3)C2)CC1 (stereo not shown) [8p, 5-(4-(3-(4-(4-((5-Chloro-4-((2-(isopropylsulfonyl)phenyl)amino)pyrimidin-2-yl)amino)-5-isopropoxy-2-methylphenyl)piperidin-1-yl)azetidin-1-yl)piperidin-1-yl)-2-(2,6-dioxopiperidin-3-yl)isoindoline-1,3-dione] |  |  | 93%

Row | Molecule | DC50 [3] | IC50 ([1]; Mus musculus, BaF3, 72 h) | IC50 ([2]; Mus musculus, BaF3) | IC50 [1] | IC50 [2] | Dmax (%) (ROS1) [3]
7 | 3-(5-(4-((4-(4-((5-Chloro-4-((2-(dimethylphosphoryl)phenyl)amino)pyrimidin-2-yl)amino)-3-methoxyphenyl)piperazin-1-yl)methyl)piperidin-1-yl)-1-oxoisoindolin-2-yl)piperidine-2,6-dione [9n] | 11 nM |  |  | 9.5 ± 0.5 nM | 195 ± 124 nM | 93%
8 | 4-(3-(4-(1-(4-((5-Chloro-4-((2-(dimethylphosphoryl)phenyl)amino)pyrimidin-2-yl)amino)-3-methoxyphenyl)piperidin-4-yl)piperazin-1-yl)azetidin-1-yl)-2-(2,6-dioxopiperidin-3-yl)isoindoline-1,3-dione [9j] | 108 nM |  |  | 113 ± 16 nM | 1040 ± 96 nM | 77%
